In patent US8426408B2, “Pyrimidine inhibitors of kinases” (AbbVie Inc., priority 2009, dated 2013):

Legend:
Type in all cases: biochemical
Aurora A = biological target: T1, Aurora A (Homo sapiens, UniProt O14965); assay: Aurora A enzyme inhibition (time-resolved fluorescence, STK substrate-2); conditions: 1 mM ATP
T1 sequence (O14965 1-403): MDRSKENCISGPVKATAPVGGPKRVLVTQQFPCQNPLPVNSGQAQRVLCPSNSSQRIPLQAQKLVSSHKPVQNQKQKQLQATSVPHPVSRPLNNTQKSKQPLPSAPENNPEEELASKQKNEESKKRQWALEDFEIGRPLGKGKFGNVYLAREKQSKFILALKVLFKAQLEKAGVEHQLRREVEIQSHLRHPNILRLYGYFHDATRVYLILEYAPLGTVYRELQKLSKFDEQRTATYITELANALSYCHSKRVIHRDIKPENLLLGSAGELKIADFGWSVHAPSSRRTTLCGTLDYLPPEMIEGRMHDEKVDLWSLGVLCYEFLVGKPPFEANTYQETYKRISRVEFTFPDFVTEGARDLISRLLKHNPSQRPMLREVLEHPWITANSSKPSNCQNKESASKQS
How it was run: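 Active enzyme incubated 1 h with biotinylated STK substrate-2, 1 mM ATP and inhibitor in Hepes pH 7.4 with MgCl2, orthovanadate and Triton X-100. EDTA stop; phosphopeptide detected by Eu-cryptate anti-phospho-STK/SA-XL665 TR-FRET (665/615 nm ratio); IC50 by exponential fit.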

Aurora B = biological target: T2, Aurora B (Homo sapiens, UniProt Q96GD4); assay: Aurora B enzyme inhibition (time-resolved fluorescence, histone H3 peptide); conditions: 1 mM ATP
T2 construct: Active Aurora B enzyme (recombinant residues 1-344)
T2 sequence (Q96GD4 whole entry, the tested form may be a part): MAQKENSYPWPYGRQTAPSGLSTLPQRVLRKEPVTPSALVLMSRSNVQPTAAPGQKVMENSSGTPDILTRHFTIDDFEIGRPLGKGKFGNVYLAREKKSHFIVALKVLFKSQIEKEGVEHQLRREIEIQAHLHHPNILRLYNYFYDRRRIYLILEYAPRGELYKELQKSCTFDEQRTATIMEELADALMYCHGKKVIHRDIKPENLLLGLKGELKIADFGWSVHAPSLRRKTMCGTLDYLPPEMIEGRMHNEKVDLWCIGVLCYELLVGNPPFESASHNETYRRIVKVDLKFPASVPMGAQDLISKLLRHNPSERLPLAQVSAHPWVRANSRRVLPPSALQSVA
T2 sequence (Q9NQS7 826-918 partner limits assumed): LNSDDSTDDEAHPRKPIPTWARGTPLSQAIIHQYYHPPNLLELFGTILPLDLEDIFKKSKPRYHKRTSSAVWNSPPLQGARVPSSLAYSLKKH
How it was run: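 Recombinant Aurora B (residues 1-344) with GST-INCENP phosphorylated biotinylated histone H3 (1-21) peptide at 1 mM ATP in HEPES pH 7.4 with MgCl2, orthovanadate and Triton X-100 for 1 h. After EDTA stop, the phosphopeptide was detected by TR-FRET (Eu-cryptate anti-phospho-H3 / SA-APC, 665/615 nm ratio). IC50 from an exponential fit.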

KDR = KDR (Homo sapiens, UniProt P35968); assay: KDR HTRF in vitro kinase assay; parameters: purified enzyme (His6-KDR 789-1354, MW 63 kD); His6 (N); conditions: 1 mM ATP; read-out: KDR enzyme inhibition data (Ki)
Chain of KDR (P35968 789-1354): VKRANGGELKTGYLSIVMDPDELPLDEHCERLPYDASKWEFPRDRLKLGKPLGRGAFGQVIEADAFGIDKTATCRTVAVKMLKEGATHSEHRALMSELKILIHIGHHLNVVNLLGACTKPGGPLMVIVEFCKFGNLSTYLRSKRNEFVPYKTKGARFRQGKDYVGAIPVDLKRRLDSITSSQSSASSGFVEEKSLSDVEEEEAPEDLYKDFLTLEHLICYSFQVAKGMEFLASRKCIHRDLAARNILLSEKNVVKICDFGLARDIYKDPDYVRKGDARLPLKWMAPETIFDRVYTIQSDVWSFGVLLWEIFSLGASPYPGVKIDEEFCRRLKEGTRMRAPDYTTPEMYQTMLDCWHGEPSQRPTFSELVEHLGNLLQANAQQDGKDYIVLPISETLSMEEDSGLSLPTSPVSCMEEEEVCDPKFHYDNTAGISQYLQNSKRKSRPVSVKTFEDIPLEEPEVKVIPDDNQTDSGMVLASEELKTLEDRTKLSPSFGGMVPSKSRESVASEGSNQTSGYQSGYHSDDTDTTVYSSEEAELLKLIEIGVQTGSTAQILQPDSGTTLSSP
How it was run: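 His6-KDR 789-1354 (7 ng/well) with 0.5 μM biotinylated peptide substrate and 1 mM ATP in HEPES pH 7.1, MgCl2/MnCl2, 60 min at room temperature. EDTA-quenched, detected by streptavidin-XL-665 plus Eu-kryptate anti-phosphotyrosine HTRF after 3 h; IC50 from 620/665 nm ratio.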

Row | Compound | Ki (Aurora A) | Ki (Aurora B) | Ki (KDR)
1 | NC(=O)[C@@H]1[C@H](Nc2nc(Nc3cnn(CCN4CCCC4)c3)ncc2Br)[C@H]2C=C[C@@H]1C2 (racemic) [Example 44, (1S,2S,3R,4R)-3-[(5-bromo-2-{[1-(2-pyrrolidin-1-ylethyl)-1H-pyrazol-4-yl]amino}pyrimidin-4-yl)amino]bicyclo[2.2.1]hept-5-ene-2-carboxamide and (1R,2R,3S,4S)-3-[(5-bromo-2-{[1-(2-pyrrolidin-1-ylethyl)-1H-pyrazol-4-yl]amino}pyrimidin-4-yl)amino]bicyclo[2.2.1]hept-5-ene-2-carboxamide] | < 100 nM | < 100 nM | < 100 nM
2 | CNC(=O)[C@@H]1[C@H](Nc2nc(Nc3cnn(C)c3)ncc2Cl)[C@H]2C=C[C@@H]1C2 (racemic) [Example 50, (1S,2S,3R,4R)-3-({5-chloro-2-[(1-methyl-1H-pyrazol-4-yl)amino]pyrimidin-4-yl}amino)-N-methylbicyclo[2.2.1]hept-5-ene-2-carboxamide and (1R,2R,3S,4S)-3-({5-chloro-2-[(1-methyl-1H-pyrazol-4-yl)amino]pyrimidin-4-yl}amino)-N-methylbicyclo[2.2.1]hept-5-ene-2-carboxamide] | < 100 nM | < 100 nM | < 100 nM
3 | CNC(=O)Cn1cc(Nc2ncc(Cl)c(NC3C4CCC(C4)C3C(N)=O)n2)cn1 (racemic) [Example 61, (1R,2S,3R,4S)-3-{[5-chloro-2-({1-[2-(methylamino)-2-oxoethyl]-1H-pyrazol-4-yl}amino)pyrimidin-4-yl]amino}bicyclo[2.2.1]heptane-2-carboxamide and (1S,2R,3S,4R)-3-{[5-chloro-2-({1-[2-(methylamino)-2-oxoethyl]-1H-pyrazol-4-yl}amino)pyrimidin-4-yl]amino}bicyclo[2.2.1]heptane-2-carboxamide] | < 100 nM | < 100 nM | < 100 nM
4 | Cn1cc(Nc2ncc(Cl)c(N[C@H]3[C@@H](C(N)=O)[C@@H]4C=C[C@H]3C4)n2)cn1 [Example 41, (1S,2S,3R,4R)-3-({5-chloro-2-[(1-methyl-1H-pyrazol-4-yl)amino]pyrimidin-4-yl}amino)bicyclo[2.2.1]hept-5-ene-2-carboxamide] | < 100 nM | < 100 nM | < 100 nM
5 | CCn1cc(Nc2ncc(Cl)c(N[C@H]3[C@@H](C(N)=O)[C@@H]4C=C[C@H]3C4)n2)cn1 [Example 42, (1S,2S,3R,4R)-3-({5-chloro-2-[(1-ethyl-1H-pyrazol-4-yl)amino]pyrimidin-4-yl}amino)bicyclo[2.2.1]hept-5-ene-2-carboxamide] | < 100 nM | < 100 nM | < 100 nM
6 | CCn1cc(Nc2ncc(C(F)(F)F)c(N[C@H]3[C@@H](C(N)=O)[C@@H]4C=C[C@H]3C4)n2)cn1 [Example 62, (1S,2S,3R,4R)-3-{[2-[(1-ethyl-1H-pyrazol-4-yl)amino]-5-(trifluoromethyl)pyrimidin-4-yl]amino}bicyclo[2.2.1]hept-5-ene-2-carboxamide] | < 100 nM | < 100 nM | < 100 nM
7 | NC(=O)[C@@H]1[C@H](Nc2nc(Nc3cnn(CCO)c3)ncc2C(F)(F)F)[C@H]2C=C[C@@H]1C2 [Example 63, (1S,2S,3R,4R)-3-{[2-{[1-(2-hydroxyethyl)-1H-pyrazol-4-yl]amino}-5-(trifluoromethyl)pyrimidin-4-yl]amino}bicyclo[2.2.1]hept-5-ene-2-carboxamide] | < 100 nM | < 100 nM | < 100 nM
8 | NC(=O)[C@@H]1[C@H](Nc2nc(Nc3cnn(CC(F)(F)F)c3)ncc2C(F)(F)F)[C@H]2C=C[C@@H]1C2 [Example 64, (1S,2S,3R,4R)-3-{[2-{[1-(2,2,2-trifluoroethyl)-1H-pyrazol-4-yl]amino}-5-(trifluoromethyl)pyrimidin-4-yl]amino}bicyclo[2.2.1]hept-5-ene-2-carboxamide] | < 100 nM | < 100 nM | < 100 nM
9 | NC(=O)[C@@H]1[C@H](Nc2nc(Nc3cnn(CCO)c3)ncc2Cl)[C@H]2C=C[C@@H]1C2 [Example 65, (1S,2S,3R,4R)-3-[(5-chloro-2-{[1-(2-hydroxyethyl)-1H-pyrazol-4-yl]amino}pyrimidin-4-yl)amino]bicyclo[2.2.1]hept-5-ene-2-carboxamide] | < 100 nM | < 100 nM | < 100 nM
10 | NC(=O)[C@@H]1[C@H](Nc2nc(Nc3cnn(CC(F)(F)F)c3)ncc2Cl)[C@H]2C=C[C@@H]1C2 [Example 66, (1S,2S,3R,4R)-3-[(5-chloro-2-{[1-(2,2,2-trifluoroethyl)-1H-pyrazol-4-yl]amino}pyrimidin-4-yl)amino]bicyclo[2.2.1]hept-5-ene-2-carboxamide] | < 100 nM | < 100 nM | < 100 nM
11 | C[C@@H](O)Cn1cc(Nc2ncc(C(F)(F)F)c(N[C@H]3[C@@H](C(N)=O)[C@@H]4C=C[C@H]3C4)n2)cn1 [Example 69, (1S,2S,3R,4R)-3-{[2-({1-[(2R)-2-hydroxypropyl]-1H-pyrazol-4-yl}amino)-5-(trifluoromethyl)pyrimidin-4-yl]amino}bicyclo[2.2.1]hept-5-ene-2-carboxamide] | < 100 nM | < 100 nM | < 100 nM
12 | NC(=O)[C@@H]1[C@H](Nc2nc(Nc3cnn([C@H]4CCNC4)c3)ncc2Cl)[C@H]2C=C[C@@H]1C2 [Example 72, (1S,2S,3R,4R)-3-{[5-chloro-2-({1-[(3S)-pyrrolidin-3-yl]-1H-pyrazol-4-yl}amino)pyrimidin-4-yl]amino}bicyclo[2.2.1]hept-5-ene-2-carboxamide] | < 100 nM | < 100 nM | < 100 nM
13 | NC(=O)[C@@H]1[C@H](Nc2nc(Nc3cnn([C@@H]4CCNC4)c3)ncc2Cl)[C@H]2C=C[C@@H]1C2 [Example 73, (1S,2S,3R,4R)-3-{[5-chloro-2-({1-[(3R)-pyrrolidin-3-yl]-1H-pyrazol-4-yl}amino)pyrimidin-4-yl]amino}bicyclo[2.2.1]hept-5-ene-2-carboxamide] | < 100 nM | < 100 nM | < 100 nM

Next, values leading:

Row | Ki (Aurora A) | Ki (Aurora B) | Ki (KDR) | Compound
14 | < 100 nM | < 100 nM | < 100 nM | NC(=O)Cn1cc(Nc2ncc(Cl)c(N[C@H]3[C@@H](C(N)=O)[C@@H]4C=C[C@H]3C4)n2)cn1 [Example 74, (1S,2S,3R,4R)-3-[(2-{[1-(2-amino-2-oxoethyl)-1H-pyrazol-4-yl]amino}-5-chloropyrimidin-4-yl)amino]bicyclo[2.2.1]hept-5-ene-2-carboxamide]
15 | < 100 nM | < 100 nM | < 100 nM | CNC(=O)Cn1cc(Nc2ncc(Cl)c(N[C@H]3[C@@H](C(N)=O)[C@@H]4C=C[C@H]3C4)n2)cn1 [Example 75, (1S,2S,3R,4R)-3-{[5-chloro-2-({1-[2-(methylamino)-2-oxoethyl]-1H-pyrazol-4-yl}amino)pyrimidin-4-yl]amino}bicyclo[2.2.1]hept-5-ene-2-carboxamide]
16 | < 100 nM | < 100 nM | < 100 nM | NC(=O)Cn1cc(Nc2ncc(Br)c(N[C@H]3[C@@H](C(N)=O)[C@@H]4C=C[C@H]3C4)n2)cn1 [Example 76, (1S,2S,3R,4R)-3-[(2-{[1-(2-amino-2-oxoethyl)-1H-pyrazol-4-yl]amino}-5-bromopyrimidin-4-yl)amino]bicyclo[2.2.1]hept-5-ene-2-carboxamide]
17 | < 100 nM | < 100 nM | < 100 nM | CNC(=O)Cn1cc(Nc2ncc(Br)c(N[C@H]3[C@@H](C(N)=O)[C@@H]4C=C[C@H]3C4)n2)cn1 [Example 77, (1S,2S,3R,4R)-3-{[5-bromo-2-({1-[2-(methylamino)-2-oxoethyl]-1H-pyrazol-4-yl}amino)pyrimidin-4-yl]amino}bicyclo[2.2.1]hept-5-ene-2-carboxamide]
18 | < 100 nM | < 100 nM | < 100 nM | CC(C)OC(=O)Cn1cc(Nc2ncc(Cl)c(N[C@H]3[C@@H](C(N)=O)[C@@H]4C=C[C@H]3C4)n2)cn1 [Example 78, isopropyl{4-[(4-{[(1R,2R,3S,4S)-3-(aminocarbonyl)bicyclo[2.2.1]hept-5-ene-2-yl]amino}-5-chloropyrimidin-2-yl)amino]-1H-pyrazol-1-yl}acetate]
19 | < 100 nM | < 100 nM | < 100 nM | CCn1cc(Nc2ncc(Br)c(N[C@H]3[C@@H](C(N)=O)[C@@H]4C=C[C@H]3C4)n2)cn1 [Example 79, (1S,2S,3R,4R)-3-({5-bromo-2-[(1-ethyl-1H-pyrazol-4-yl)amino]pyrimidin-4-yl}amino)bicyclo[2.2.1]hept-5-ene-2-carboxamide]
